Laboratory results as given in article PMC3248976 (Bioorganic & medicinal chemistry letters, 2011).

Experiments:
Type in all cases: cell-based
[1] = target: T1, S1P4-R (human Endothelial Differentiation Gene 6; EDG6) (Homo sapiens, UniProt O95977); assay: Tango S1P4-BLA U2OS beta-arrestin/beta-lactamase reporter agonist assay; conditions: for S1P4-R agonist activity in words: concentrations up to 25 μM; for fold decrease in potency compared to the hit 2 / fold more potent than the hit 2: S1P4-R EC50 ratio vs hit 2; for fold less potent than 22p: S1P4-R EC50 ratio vs 22p
T1 sequence (O95977 1-384): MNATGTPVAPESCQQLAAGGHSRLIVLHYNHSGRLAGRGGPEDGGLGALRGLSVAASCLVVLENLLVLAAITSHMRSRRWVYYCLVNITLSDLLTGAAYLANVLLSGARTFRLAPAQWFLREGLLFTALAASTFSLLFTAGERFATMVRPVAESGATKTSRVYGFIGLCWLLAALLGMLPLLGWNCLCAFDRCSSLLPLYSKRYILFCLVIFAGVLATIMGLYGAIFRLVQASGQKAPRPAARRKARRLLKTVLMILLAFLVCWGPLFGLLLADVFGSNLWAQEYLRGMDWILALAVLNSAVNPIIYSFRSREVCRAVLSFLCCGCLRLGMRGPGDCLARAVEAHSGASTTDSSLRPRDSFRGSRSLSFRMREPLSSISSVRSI

[2] = target: S1P1-R (Homo sapiens, UniProt P21453); assay: S1P1–3,5-Rs selectivity counter screen, S1P1-R; conditions: mean of n = 3; NA = not active at concentrations up to 25 μM
[3] = target: S1P2-R (Homo sapiens, UniProt O95136); assay: S1P1–3,5-Rs selectivity counter screen, S1P2-R; conditions: mean of n = 3; NA = not active at concentrations up to 25 μM
[4] = target: S1P3-R (Homo sapiens, UniProt Q99500); assay: S1P1–3,5-Rs selectivity counter screen, S1P3-R; conditions: mean of n = 3; NA = not active at concentrations up to 25 μM
[5] = target: S1P5-R (Homo sapiens, UniProt Q9H228); assay: S1P1–3,5-Rs selectivity counter screen, S1P5-R; conditions: mean of n = 3; NA = not active at concentrations up to 25 μM
S1P5-R, sequence (Q9H228 whole entry): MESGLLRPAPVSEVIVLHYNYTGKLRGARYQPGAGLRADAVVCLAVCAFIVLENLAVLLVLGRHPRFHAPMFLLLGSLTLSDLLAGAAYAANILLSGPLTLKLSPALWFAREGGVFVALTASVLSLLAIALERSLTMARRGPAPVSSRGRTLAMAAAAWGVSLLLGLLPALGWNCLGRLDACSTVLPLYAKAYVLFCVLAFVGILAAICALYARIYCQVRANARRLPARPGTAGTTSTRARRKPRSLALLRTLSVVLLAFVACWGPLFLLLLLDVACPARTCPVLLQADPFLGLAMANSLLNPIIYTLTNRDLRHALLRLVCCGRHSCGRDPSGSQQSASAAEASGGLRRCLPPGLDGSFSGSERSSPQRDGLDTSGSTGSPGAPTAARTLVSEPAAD

S1P2-R, sequence (O95136 whole entry): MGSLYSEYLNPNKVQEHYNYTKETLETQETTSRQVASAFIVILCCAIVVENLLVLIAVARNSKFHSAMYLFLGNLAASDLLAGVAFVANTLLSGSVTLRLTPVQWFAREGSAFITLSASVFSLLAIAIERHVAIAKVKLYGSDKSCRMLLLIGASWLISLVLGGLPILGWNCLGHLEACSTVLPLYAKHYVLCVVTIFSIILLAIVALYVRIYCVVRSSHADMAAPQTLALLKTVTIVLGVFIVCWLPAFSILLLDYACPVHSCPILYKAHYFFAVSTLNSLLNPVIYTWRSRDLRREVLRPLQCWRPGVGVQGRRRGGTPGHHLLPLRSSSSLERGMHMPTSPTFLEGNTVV
S1P3-R, sequence (Q99500 whole entry): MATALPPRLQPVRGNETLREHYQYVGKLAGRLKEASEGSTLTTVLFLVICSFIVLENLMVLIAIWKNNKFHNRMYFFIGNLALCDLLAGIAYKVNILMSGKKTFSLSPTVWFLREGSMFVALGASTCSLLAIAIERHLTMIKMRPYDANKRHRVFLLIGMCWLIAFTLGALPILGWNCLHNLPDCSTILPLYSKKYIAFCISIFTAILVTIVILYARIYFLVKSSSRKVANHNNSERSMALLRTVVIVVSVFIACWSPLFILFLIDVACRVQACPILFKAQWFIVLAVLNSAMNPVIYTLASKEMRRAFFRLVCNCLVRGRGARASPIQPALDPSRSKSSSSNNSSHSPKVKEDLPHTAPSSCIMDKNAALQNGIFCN
S1P1-R, sequence (P21453 whole entry): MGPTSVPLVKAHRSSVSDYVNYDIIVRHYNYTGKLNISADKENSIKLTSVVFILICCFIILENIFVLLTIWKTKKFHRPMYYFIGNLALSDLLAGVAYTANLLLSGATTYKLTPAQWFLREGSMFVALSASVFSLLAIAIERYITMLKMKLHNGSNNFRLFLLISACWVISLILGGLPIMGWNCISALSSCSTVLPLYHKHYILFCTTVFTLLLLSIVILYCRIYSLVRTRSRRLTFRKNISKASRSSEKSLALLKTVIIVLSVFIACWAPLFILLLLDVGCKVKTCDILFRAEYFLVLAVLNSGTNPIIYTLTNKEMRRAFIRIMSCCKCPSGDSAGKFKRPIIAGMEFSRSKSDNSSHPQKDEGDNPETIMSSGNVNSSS

SMILES: Cc1ccc(OCCOc2ccccc2Cl)c([N+](=O)[O-])n1 [8a]
- S1P4-R agonist activity in words [1]: complete loss of activity

SMILES: Cc1ccc(OCCOc2ccc(Cl)cc2)c([N+](=O)[O-])n1 [8b]
- S1P4-R agonist activity in words [1]: complete loss of activity

SMILES: Cc1ccc(OCCOc2ccccc2)c([N+](=O)[O-])n1 [8f]
- S1P4-R agonist activity in words [1]: complete loss of activity

SMILES: Cc1ccc(OCCOc2cc(Cl)cc([N+](=O)[O-])c2)c([N+](=O)[O-])n1 [8q]
- fold decrease in potency compared to the hit 2 [1]: 22 fold

SMILES: Cc1ccc(OCCOc2ccc(Br)cc2C(F)(F)F)c([N+](=O)[O-])n1 [8r]
- fold less potent than 8h ([1]; S1P4-R EC50 ratio vs 2-chloro analog 8h): 3 fold

SMILES: Cc1ccc(OCCOc2c(Cl)cc(Cl)cc2Cl)c([N+](=O)[O-])n1 [8s]
- fold decrease in potency compared to the hit 2 [1]: 3 fold

SMILES: Cc1ccc(OCCCOc2ccc(Cl)cc2Cl)c([N+](=O)[O-])n1 [13a]
- S1P4-R agonist activity in words [1]: complete loss of activity

SMILES: Cc1ccc(OCCCc2ccc(Cl)cc2Cl)c([N+](=O)[O-])n1 [13b]
- fold decrease in potency compared to the hit 2 [1]: 5–6 fold

SMILES: Cc1ccc(OC(=O)COc2ccc(Cl)cc2Cl)c([N+](=O)[O-])n1 [13d]
- S1P4-R agonist activity in words [1]: complete loss of activity

SMILES: O=[N+]([O-])c1ncccc1OCCOc1ccc(Cl)cc1Cl [22a]
- fold decrease in potency compared to the hit 2 [1]: 18 fold

SMILES: FCc1ccc(OCCOc2ccc(Cl)cc2Cl)c(Cl)n1 [22aa]
- fold more potent than the hit 2 [1]: 3.5 fold

SMILES: Cc1ccc(OCCOc2ccc(Cl)cc2Cl)c([N+](=O)[O-])c1 [22c]
- fold decrease in potency compared to the hit 2 [1]: 8 fold

SMILES: O=[N+]([O-])c1nc(Cl)ccc1OCCOc1ccc(Cl)cc1Cl [22d]
- fold decrease in potency compared to the hit 2 [1]: 2 fold

SMILES: Cc1ccc(OCCOc2ccc(Cl)cc2Cl)c(Br)n1 [22l]
- fold more potent than the hit 2 [1]: 3 fold

SMILES: Clc1ccc(OCCOc2ccc(Br)nc2Br)c(Cl)c1 [22n]
- fold more potent than the hit 2 [1]: 3 fold

SMILES: Fc1ccc(OCCOc2ccc(Cl)cc2Cl)c(Br)n1 [22o]
- fold less potent than 22l ([1]; S1P4-R EC50 ratio vs 22l): 4 fold
- fold more potent than 22m ([1]; S1P4-R EC50 ratio vs 22m): 6 fold

SMILES: OCc1ccc(OCCOc2ccc(Cl)cc2Cl)c(I)n1 [22t]
- fold less potent than 22p [1]: 4 fold

SMILES: O=Cc1ccc(OCCOc2ccc(Cl)cc2Cl)c(I)n1 [22u]
- fold less potent than 22p [1]: 38 fold

SMILES: OCc1ccc(OCCOc2ccc(Cl)cc2Cl)c(Cl)n1 [22v]
- fold less active than the 2-iodine counterpart 22t ([1]; S1P4-R EC50 ratio vs 22t): 5 fold

SMILES: Cc1ccc(OCCOc2ccc(Cl)cc2Cl)c([N+](=O)[O-])n1 [compound 2, 3-(2-(2,4-dichlorophenoxy)ethoxy)-6-methyl-2-nitropyridine]
- EC50 nM, S1P1-R [2]: no agonistic activity
- EC50 nM, S1P2-R [3]: no agonistic activity
- EC50 nM, S1P3-R [4]: no agonistic activity
- EC50 nM, S1P5-R [5]: no agonistic activity
